Like-named read-outs stand apart in the source and are kept apart here. No end group written: not given here.
How the values were obtained:
[1] = system: Leishmania donovani axenic amastigotes
Method: We utilized a previously developed high-throughput screening assay using transgenic axenic amastigotes expressing a red fluorescent protein, mCherry. Changes in mCherry fluorescence were normalized to 50 μM miltefosine in order to quantify parasite inhibition ([52]). In total, 5 scaffold 25-mer peptides and 475 synthetic 25-mer peptide variants were screened (Fig. 1). […] The assay was repeated, and the average percent parasite killing was determined.
Axenic amastigotes were differentiated as described previously ([69]).
Axenic amastigotes were differentiated as described previously ([69]); briefly, transgenic L. donovani promastigotes expressing mCherry were differentiated by pH and temperature shifts. Amastigotes were seeded into 96-well plates at 5 × 10^6 cells/mL and incubated for 48 h in the presence of decreasing drug concentrations, starting at 20 μM, along with the appropriate solvent controls. Fluorescence was monitored (587-nm excitation/610-nm emission) over 48 h using a FlexStation 3 benchtop multimode reader (Molecular Devices). […] Thus, changes in mCherry fluorescence were normalized to the 50 μM miltefosine control in order to quantify parasite inhibition. Each assay was performed in triplicate. The IC50 values were calculated by nonlinear regression analysis using GraphPad Prism 9.0 for Windows.

[2] = system: THP-1 macrophages; experiment: Cytotoxicity against THP-1 macrophages (CellTiter-Blue); assay type: cell-based, human
Method: THP-1 (human acute monocytic leukemia-derived) host macrophages were cultured in RPMI 1640 supplemented with 10% FCS and a penicillin-streptomycin antibiotic solution (10,000 U/mL penicillin, 10,000 μg/mL streptomycin) at 37°C with 5% CO2. THP-1 cells were incubated with 0.25 μM phorbol 12-myristate […] (PMA) for 48 h to differentiate into mature macrophages. Differentiated macrophages were seeded into 96-well plates at 5 × 10^6 cells/mL and incubated for 48 h in the presence of 20 μM antimicrobial peptides along with the appropriate solvent controls. Cell viability assays were conducted using CellTiter-Blue (Promega), based on resazurin reduction. After the 48-h incubation period, CellTiter-Blue reagent was added to cells for 4 h at 37°C, and fluorescence was measured (555-nm excitation/580-nm emission) using a FlexStation 3 benchtop multimode reader (Molecular Devices). Each assay was performed in triplicate. The CC50 values were calculated by nonlinear regression analysis using GraphPad Prism 9.0 for Windows.

[3] = read-out: Axenic amastigotes Mean IC50 ± SD
[4] = read-out: Axenic amastigotes Mean IC50 ± SD, L. donovani mCherry axenic amastigotes, 48 h, fluorescence normalized to 50 μM miltefosine, highest concentration 20 μM, mean of three replicates

Sequence	IC50 [1, 3]	THP-1 macrophage CC50 [2]	IC50 [1, 4]	IC50 ([1]; 48 h)	THP-1 macrophage CC50 ([2]; 48 h)
AGANRLTKELLEYLRKFGKIWRKAW [Syn-xiamencin-40]	1.31 µM	< 20 µM	–	–	–
AGANRLTKELLEYLRKFWKIARKAW [Syn-xiamencin-24]	–	< 20 µM	1.63 µM	–	–
AGANRLWKELLEYLRKFGKIARKAW [Syn-xiamencin-48]	2.18 µM	< 20 µM	–	–	–
AGAQRLTKELLEYLRKFGKIWRKAW [Syn-xiamencin-39]	6.81 µM	< 20 µM	–	–	–
AGAQRLTKELLEYLRKFWKIARKAW [Syn-xiamencin-23]	–	< 20 µM	1.14 µM	–	–
AGAQRLTLYLKEELRKRWKKAFIAW [Syn-xiamencin-18]	–	< 20 µM	0.65 µM	–	–
AGAQRLWKELLEYLRKFGKIARKAW [Syn-xiamencin-47]	2.68 µM	< 20 µM	–	–	–
AGKEKIRKKLKNEIKKKGRKAWIAW [Syn-safencin 72]	–	> 20 µM	–	12.07 ± 0.09 µM	>20 µM
AGKEKIRKKLKNEIKKKGRKWVIAW [Syn-safencin-64]	–	< 20 µM	0.33 µM	–	–
AGKEKIRKKLKNEWKKKGRKAVIAW [Syn-safencin-48]	–	< 20 µM	1.75 µM	–	–
AGKEKIRKKWKNEIKKKGRKAVIAW [Syn-safencin-40]	–	< 20 µM	2.12 µM	–	–
AGKEKIRQFLKKKIQEGKKRATIAW [Syn-larvacin-76]	–	< 20 µM	1.58 µM	–	–
AGKEKIRQFLKKKIQEKGKRATIAW [Syn-larvacin-73]	–	< 20 µM	0.39 µM	–	–
AGKEKIRQFLKKTIQEKGKRAKIAW [Syn-larvacin-77]	–	< 20 µM	10.3 µM	–	–
AGKEKIRQYLKNEIKKKGRKAVWAW [Syn-safencin 77]	–	> 20 µM	–	0.39 ± 0.13 µM	>20 µM
AGKEKIRQYLKNEIKKKGRKAWIAW [Syn-safencin-69]	–	< 20 µM	3.37 µM	–	–
AGKEKIRQYLKNEIKKKGRKWVIAW [Syn-safencin-61]	–	< 20 µM	3.56 µM	–	–
AGKEKIRQYWKNEIKKKGRKAVIAW [Syn-safencin-37]	–	< 20 µM	5.21 µM	–	–
AGKEKWRKKLKNEIKKKGRKAVIAW [Syn-safencin-32]	–	< 20 µM	4.62 µM	–	–
AGKETIFQRLKKKIQEKGKRATIAW [Syn-larvacin-3]	–	below 20 μM	0.36 µM	–	–
AGKETIFQRLKKKIQEKWKRATIAW [Syn-larvacin-43]	–	< 20 µM	0.22 µM	–	–
AGKETIFWRLKKKIWEKGKRATIAW [Syn-larvacin-51]	–	< 20 µM	0.42 µM	–	–
AGKETIRKYLKNEIKKKGRKAVIAW [Syn-safencin 6]	–	> 20 µM	–	0.48 ± 0.07 µM	>20 µM

Sequence	IC50 [1, 3]	THP-1 macrophage CC50 [2]	IC50 [1, 4]	IC50 ([1]; 48 h)	THP-1 macrophage CC50 ([2]; 48 h)
AGKETIRKYLKNEIKKKGRKAVWAW [Syn-safencin 78]	–	> 20 µM	–	0.94 ± 0.14 µM	>20 µM
AGKETIRQFLKKKIQEGKKRATIAW [Syn-larvacin-4]	–	below 20 μM	1.09 µM	–	–
AGKETIRQFLKKKIQEGKKRATIWW [Syn-larvacin-68]	–	< 20 µM	1.31 µM	–	–
AGKETIRQFLKKKIQEKGKIAKRAW [Syn-larvacin-94]	–	< 20 µM	18.2 µM	–	–
AGKETIRQFLKKKIQEKGKIATRWW [Syn-larvacin-70]	–	< 20 µM	0.3 µM	–	–
AGKETIRQFLKKKIQEKGKRATIWW [Syn-larvacin-65]	–	< 20 µM	0.31 µM	–	–
AGKETIRQFLKKKIQEKKKRATIAW [Syn-larvacin-81]	–	< 20 µM	0.26 µM	–	–
AGKETIRQFLKKKIQEWKKRATIAW [Syn-larvacin-44]	–	< 20 µM	0.47 µM	–	–
AGKETIRQFLKKRIQEKGKRAKIAW [Syn-larvacin-93]	–	< 20 µM	2.46 µM	–	–
AGKETIRQFLKKTIQEKGKRAKIWW [Syn-larvacin 69]	–	> 20 µM	–	4.14 ± 0.11 µM	>20 µM
AGKETIRQKLKNEIKKKGRKAVIAW [Syn-safencin 7]	–	> 20 µM	–	0.77 ± 0.08 µM	>20 µM
AGKETIRQKWKNEIKKKGRKAVIAW [Syn-safencin-39]	–	< 20 µM	0.72 µM	–	–
AGKETIRQYLKNEIKKKGRKAVIWW [Syn-safencin-81]	–	< 20 µM	3.15 µM	–	–
AGKETIRQYLKNEIKKKGRKAVWAW [Syn-safencin 73]	–	> 20 µM	–	0.35 ± 0.08 µM	>20 µM
AGKETIRQYLKNEIKKKGRKAWIAW [Syn-safencin-65]	–	< 20 µM	1.01 µM	–	–
AGKETIRQYLKNKIKKKWRKAVIAW [Syn-safencin-51]	–	< 20 µM	6.36 µM	–	–
AGKETIRQYLKNKWKKKGRKAVIAW [Syn-safencin-43]	–	< 20 µM	11.2 µM	–	–
AGKETIRQYWKNKIKKKGRKAVIAW [Syn-safencin-35]	–	< 20 µM	0.29 µM	–	–
AGKETIRWFLKKKIWEGKKRATIAW [Syn-larvacin-52]	–	< 20 µM	1.86 µM	–	–
AGKEWIFQRLKKKIQEKGKRATIAW [Syn-larvacin-19]	–	< 20 µM	0.73 µM	–	–
AGKKTIRQYLKNEIKKKGRKAVIAW [Syn-safencin 2]	–	> 20 µM	–	2.42 ± 0.09 µM	>20 µM
AGRQALTLELKEYLRKRGKKWFIAW [Syn-xiamencin-35]	–	< 20 µM	–	–	–
